# Laboratory results taken from ChEMBL document CHEMBL1159007, “Isolation and identification of xochitloldione and isoxochitlolone from Cnidosculus urens” (J Nat Prod, 1992).
# Activity calls are given as the source filed them. The calls are words filed in the database; no cut-off is given here.
# Columns and labels:
# Escherichia coli = test: Antimicrobial activity against Escherichia coli; format: functional, organism-based
# Staphylococcus aureus = test: Antimicrobial activity against Staphylococcus aureus; format: functional, organism-based
smiles,measurement,setting,value
Cc1cc2c(cc1O)C=C1C=CCC(C)(C)[C@@H]1CC2=O,Activity,Escherichia coli,Active
same,Activity,Staphylococcus aureus,Active
